# Results taken from patent US9333209B2, “Compositions for increasing hair growth” (The Board of Trustees of the Leland Stanford Junior …, priority 2012, dated 2016).
# Entries after “also recorded” stand apart in the source; their conditions may differ.
# B1: Fstl1 protein: secreted glycoprotein that inhibits BMP signaling; deduced 308-amino acid protein with FS module (protein, UniProt Q12841 21-308, looked up)
# Follistatin-related protein 1: EEELRSKSKICANVFCGAGRECAVTEKGEPTCLCIEQCKPHKRPVCGSNGKTYLNHCELHRDACLTGSKIQVDYDGHCKEKKSVSPSASPVVCYQSNRDELRRRIIQWLEAEIIPDGWFSKGSNYSEILDKYFKNFDNGDSRLDSSEFLKFVEQNETAINITTYPDQENNKLLRGLCVDALIELSDENADWKLSFQEFLKCLNPSFNPPEKKCALEDETYADGAETEVDCNRCVCACGNWVCTAMTCDGKNQKGAQTQTEEEMTRYVQELQKHQETAEKTKRVSTKEI
# How the values were obtained:
# [1] = system: murine hair follicle cycling; settings: small molecule screen of calcium blockers; mice
# Protocol: To understand how calcium signaling controls hair follicle stem cell regulation, a screen for small molecules that affect murine hair follicle cycling was carried out. The compounds included a survey of different classes of cell permeable slow and fast channel blockers applied to the skin.
# We performed a small molecule screen to find out if any of the available calcium blockers affected hair follicle cycling.
# [2] = system: bulge stem cells of Cav fx/-; K15 CrePR mice; assay: Verapamil treatment of RU486 treated Cav fx/-; K15 CrePR mice; type: in vivo, mouse
# Text: Loss of function mutation of this channel entails a removal of exon 13 and 14 of Cav 1.2 gene (FIG. 1). […] Cav fx/- mice were crossed to K15CrePR animals to remove the pore region of the channel in the bulge stem cells. RU486 treatment of Cav fx/-; K15CrePR allowed the removal of the pore region. […] Loss of function mutation, which represents the closed state of this channel, results in the same phenotype as the open state of the channel.
# [3] = system: hair follicles of wild type mice; assay: Verapamil treatment of wild type mice in first telogen
# bulge stem cells = assay: microarray analysis and RT-PCR on Verapamil treated bulge cells; type: in vivo, mouse
# Text: Out of those, the gene Follistatin like 1 (Fstl1) stood out. Fstl1 is a secreted glycoprotein that inhibits BMP signaling in lung and ureter development.
# There are other BMP inhibitors that are known to affect hair cycling.
# hair cycling = assay: subcutaneous injection of Fstl1 protein soaked beads, effect on hair cycling; type: in vivo, mouse; settings: half dose (2 μg) soaked beads, Day 21-22 mice
# Protocol: To understand the effect of Fstl1 on hair cycling, we subcutaneously injected two different doses of Fstl1 protein (4 μg and 2 μg) soaked beads to Day 21-22 mice. In 2 to 4 days, these mice went into anagen (n=8, FIG. 7D).
# [4] = treated bulge stem cells vs control bulge stem cells
molecule,measurement,setting,value
"COc1ccc([C@@H]2Sc3ccccc3N(CCN(C)C)C(=O)[C@@H]2OC(C)=O)cc1 [Diltiazem, diltiazem]",entry to anagen,[1],showed the same results; also recorded: precocious entry into anagen
"COc1ccc(CCN(C)CCCC(C#N)(c2ccc(OC)c(OC)c2)C(C)C)cc1OC (stereo not shown) [Verapamil, verapamil]",anagen entry later than wild type littermates,"[2]; drug treated Cav fx/-, K15 CrePR mutant mice, RU486 treated",2 to 4 days
same,H and E staining of skin sections,[2]; treated mice vs control skin with telogen hair follicles,anagen hair follicles
same,H and E staining of skin sections,[3]; drug treated wild type mice vs telogen hair follicles in control mice,anagen hair follicles
same,early anagen (advance of anagen entry),"[3]; wild type mice treated between days 21 and 28 (first telogen), n=8",5 to 7 days
same,Bambi expression,bulge stem cells; treated bulge stem cells,downregulated
same,Noggin expression,bulge stem cells; treated bulge stem cells,downregulated
same,Fstl1 expression (RT-PCR),bulge stem cells; [4],upregulated
same,Tmeff1 expression,bulge stem cells; [4],does not change much
B1,entry to anagen,hair cycling,only partial entry to anagen
